Patent US10703764B2, “Benzopiperazine compositions as BET bromodomain inhibitors” (FORMA Therapeutics, Inc., priority 2013, dated 2020)

Experiments:
[1] = molecular target: T1, BRD4 BD1 (Homo sapiens, UniProt O60885); assay: AlphaScreen binding assay, BRD4 Bromodomain 1
T1 construct: made in house
Summary of the method: (§1)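 Compound dilution series were mixed with His-tagged BRD4 bromodomain and biotinylated tetra-acetylated H4 (1-21) peptide at pH 7.3 (BD1 and peptide at 50 nM, BD2 and peptide at 100 nM). Donor and acceptor beads were then added, and plates were equilibrated at least 1 h before reading. IC50 values were fitted with a four-parameter logistic model.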

[2] = test system: MV4-11 cells; assay: Oncology cell growth assay (3-day proliferation, CellTiter-Glo); format: cell-based; settings: Homo sapiens, MV4-11, 72 h, AML cell line MV4-11, 72 hours, compounds grouped by IC50 range, read-out: MV4-11 IC50 (inhibition of proliferation, gIC50)
Summary of the method: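 MV4-11 AML cells (RPMI 1640, 10% FBS) plated at 3000 cells/well and exposed 72 h to compound at final 10 to 0.0045 μM (3-fold series). Viability read by CellTiter-Glo luminescence; gIC50 from four-parameter logistic fit between DMSO control and no-cell background.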

[3] = molecular target: T2, BRD4 BD2 (Homo sapiens, UniProt O60885); assay: AlphaScreen binding assay, BRD4 Bromodomain 2
T2 construct: made in house
Summary of the method: as §1

| IC50 [1] | IC50 [2] | IC50 [3] | SMILES |
| --- | --- | --- | --- |
| 0.1 to 1 µM | 0.1 to 0.5 µM | 0.05 to 0.5 µM | COC(=O)N1c2ccc(-c3cnn(CCN4CCOCC4)c3)cc2N(C(=O)OC(C)C)C[C@@H]1C [Example I-321] |
| 0.1 to 1 µM | 0.1 to 0.5 µM | 0.05 to 0.5 µM | COC(=O)N1c2ccc(-c3cnn(C4CCOCC4)c3)cc2N(C(=O)OC(C)C)C[C@@H]1C [Example I-322] |
| 0.1 to 1 µM | 0.1 to 0.5 µM | 0.05 to 0.5 µM | COCCn1cc(-c2ccc3c(c2)N(C(=O)OC(C)C)C[C@H](C)N3C(=O)OC)cn1 [Example I-323] |
| 0.1 to 1 µM | 0.1 to 0.5 µM | 0.05 to 0.5 µM | COC(=O)N1c2ccc(-c3cnn(CCO)c3)cc2N(C(=O)OC(C)C)C[C@@H]1C [Example I-324] |
| 0.1 to 1 µM | > 0.5 µM | 0.05 to 0.5 µM | COC(=O)N1c2ccc(-c3cnn(CC4CC4)c3)cc2N(C(=O)OC(C)C)C[C@@H]1C [Example I-325] |
| 0.1 to 1 µM | > 0.5 µM | 0.05 to 0.5 µM | COC(=O)N1c2ccc(-c3cnn(C4COC4)c3)cc2N(C(=O)OC(C)C)C[C@@H]1C [Example I-326] |
| 0.1 to 1 µM | 0.1 to 0.5 µM | 0.05 to 0.5 µM | CC(=O)N1c2ccc(-c3cnn(CC(C)(C)O)c3)cc2N(C(=O)OC(C)C)C[C@@H]1C [Example I-327] |
| 0.1 to 1 µM | 0.1 to 0.5 µM | 0.05 to 0.5 µM | CC(C)OC(=O)N1C[C@H](C)N(C(=O)C2CC2)c2ccc(-c3cnn(CC(C)(C)O)c3)cc21 [Example I-328] |
| 0.1 to 1 µM | 0.1 to 0.5 µM | 0.05 to 0.5 µM | COC(=O)N1c2ccc(-c3cnn(CC(C)(C)O)c3)cc2N(C(=O)OC(C)C)C[C@@H]1C [Example I-329] |
| 0.1 to 1 µM | 0.1 to 0.5 µM | 0.05 to 0.5 µM | CC(=O)N1c2ccc(-c3cnn(C(C)(C)C)c3)cc2N(C(=O)OC(C)C)C[C@@H]1C [Example I-330] |
| 0.1 to 1 µM | > 0.5 µM | > 0.5 µM | CC(C)OC(=O)N1C[C@H](C)N(C(=O)C2CC2)c2ccc(-c3cnn(C(C)(C)C)c3)cc21 [Example I-331] |
| 0.1 to 1 µM | > 0.5 µM | > 0.5 µM | COC(=O)N1c2ccc(-c3cnn(C(C)(C)C)c3)cc2N(C(=O)OC(C)C)C[C@@H]1C [Example I-332] |
| 0.1 to 1 µM | > 0.5 µM | 0.05 to 0.5 µM | CC(=O)N1c2ccc(-c3cnn(C(F)F)c3)cc2N(C(=O)OC(C)C)C[C@@H]1C [Example I-336] |
| 0.1 to 1 µM | > 0.5 µM | > 0.5 µM | CC(=O)N1c2ccc(-c3c[nH]nc3C)cc2N(C(=O)OC(C)C)CC1C (stereo not drawn) [Example I-337] |
| 0.1 to 1 µM | > 0.5 µM | 0.05 to 0.5 µM | CC(=O)N1c2ccc(-c3cn(C)nc3C)cc2N(C(=O)OC(C)C)C[C@@H]1C [Example I-338] |
| 0.1 to 1 µM | 0.1 to 0.5 µM | 0.05 to 0.5 µM | CC(=O)N1c2ccc(-c3ccc(NS(C)(=O)=O)cc3)cc2N(C(=O)OC(C)C)C[C@@H]1C [Example I-345] |
| 0.1 to 1 µM | 0.1 to 0.5 µM | 0.05 to 0.5 µM | CC(=O)N1c2ccc(-c3ccc(N(C)S(C)(=O)=O)cc3)cc2N(C(=O)OC(C)C)C[C@@H]1C [Example I-346] |
| < 0.1 µM | < 0.1 µM | < 0.05 µM | CC(=O)N1c2ccc(-c3ccc(NS(=O)(=O)C4CC4)cc3)cc2N(C(=O)OC(C)C)C[C@@H]1C [Example I-347] |
| 0.1 to 1 µM | 0.1 to 0.5 µM | < 0.05 µM | CC(=O)N1c2ccc(-c3ccc4c(c3)CCN4S(C)(=O)=O)cc2N(C(=O)OC(C)C)C[C@@H]1C [Example I-348] |
| 0.1 to 1 µM | 0.1 to 0.5 µM | 0.05 to 0.5 µM | CC(=O)N1c2ccc(-c3ccc(NS(C)(=O)=O)cc3)cc2N(C(=O)C2CC2)C[C@@H]1C [Example I-349] |

| IC50 [1] | IC50 [2] | IC50 [3] | SMILES |
| --- | --- | --- | --- |
| 1 to 10 µM | 0.1 to 0.5 µM | 0.05 to 0.5 µM | CC(=O)N1c2ccc(-c3ccc(N(C)S(C)(=O)=O)cc3)cc2N(C(=O)C2CC2)C[C@@H]1C [Example I-350] |
| 0.1 to 1 µM | 0.1 to 0.5 µM | 0.05 to 0.5 µM | CC(=O)N1c2ccc(-c3ccc(NS(=O)(=O)C4CC4)cc3)cc2N(C(=O)C2CC2)C[C@@H]1C [Example I-351] |
| < 0.1 µM | < 0.1 µM | < 0.05 µM | CC(=O)N1c2ccc(-c3ccc4c(c3)CCN4S(C)(=O)=O)cc2N(C(=O)C2CC2)C[C@@H]1C [Example I-352] |
| 0.1 to 1 µM | 0.1 to 0.5 µM | 0.05 to 0.5 µM | CC(=O)N1c2ccc(-c3cnn(C4CCNCC4)c3)cc2N(C(=O)OC(C)C)C[C@@H]1C [Example I-353] |
| 0.1 to 1 µM | 0.1 to 0.5 µM | 0.05 to 0.5 µM | CC(C)OC(=O)N1C[C@H](C)N(C(=O)C2CC2)c2ccc(-c3cnn(C4CCNCC4)c3)cc21 [Example I-354] |
| 0.1 to 1 µM | 0.1 to 0.5 µM | 0.05 to 0.5 µM | COC(=O)N1c2ccc(-c3cnn(C4CCNCC4)c3)cc2N(C(=O)OC(C)C)C[C@@H]1C [Example I-355] |
| 0.1 to 1 µM | 0.1 to 0.5 µM | < 0.05 µM | CC(=O)N1c2ccc(-c3cnn(C4CNC4)c3)cc2N(C(=O)OC(C)C)C[C@@H]1C [Example I-356] |
| 1 to 10 µM | 0.1 to 0.5 µM | < 0.05 µM | CC(=O)N1c2ccc(-c3cnn(C4CCNCC4)c3)cc2N(C(=O)C2CC2)C[C@@H]1C [Example I-359] |
| < 0.1 µM | 0.1 to 0.5 µM | < 0.05 µM | CC(=O)N1c2ccc(-c3cnn(C4CNC4)c3)cc2N(C(=O)C2CC2)C[C@@H]1C [Example I-360] |
| 0.1 to 1 µM | 0.1 to 0.5 µM | < 0.05 µM | C[C@H]1CN(C(=O)c2ccco2)c2cc(-c3ccc(S(C)(=O)=O)cc3)ccc2N1C(=O)C1CC1 [Example I-364] |
| 1 to 10 µM | > 0.5 µM | < 0.05 µM | CCC(=O)N1c2ccc(-c3ccc(S(C)(=O)=O)cc3)cc2N(C(=O)c2ccco2)C[C@@H]1C [Example I-365] |
| 0.1 to 1 µM | 0.1 to 0.5 µM | 0.05 to 0.5 µM | C[C@H]1CN(C(=O)C2CC2)c2cc(-c3cnn(C4CC4)c3)ccc2N1C(=O)C1CC1 [Example I-377] |
| 0.1 to 1 µM | 0.1 to 0.5 µM | 0.05 to 0.5 µM | CC(C)OC(=O)N1C[C@H](C)N(C(=O)C2CC2)c2ccc(-c3cnn(C4CC4)c3)cc21 [Example I-378] |
| 0.1 to 1 µM | 0.1 to 0.5 µM | 0.05 to 0.5 µM | CCOC(=O)N1C[C@H](C)N(C(=O)C2CC2)c2ccc(-c3cnn(C4CC4)c3)cc21 [Example I-379] |
| 1 to 10 µM | 0.1 to 0.5 µM | > 0.5 µM | CC(=O)N1c2ccc(-c3ccc4nccn4c3)cc2N(C(=O)c2ccco2)C[C@@H]1C [Example I-382] |
| 0.1 to 1 µM | 0.1 to 0.5 µM | 0.05 to 0.5 µM | CC(=O)N1c2ccc(-c3ccc4nccn4n3)cc2N(C(=O)c2ccco2)C[C@@H]1C [Example I-398] |
| 1 to 10 µM | 0.1 to 0.5 µM | < 0.05 µM | CC(=O)N1c2ccc(-c3cn(C)cn3)cc2N(C(=O)c2ccco2)C[C@@H]1C [Example I-401] |
| 1 to 10 µM | > 0.5 µM | < 0.05 µM | CC(=O)N1c2ccc(-c3ccc(S(C)(=O)=O)cn3)cc2N(C(=O)c2ccco2)C[C@@H]1C [Example I-407] |
| 0.1 to 1 µM | < 0.1 µM | < 0.05 µM | CC(=O)N1c2ccc(-c3cnn(Cc4ccccc4)c3)cc2N(C(=O)c2ccco2)C[C@@H]1C [Example I-409] |
